Measurements taken from PubChem BioAssay AID489034 (Sanford-Burnham Center for Chemical Genomics, 2010).
Calls of active or inactive are those of the source.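 How the source made its calls: active means mean IC50 at or below a set limit; inactive means the rest.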

System: 697 B-cell NF-kB luciferase reporter, PMA/ionomycin, 16 h
Experiment: NF-kB reporter suppression in B cells – 697 B cells, PMA/ionomycin, luminescence, dose response (AID 489034)

SMILES | IC50
C=CCn1c(C)cc(C(=O)CN2C(=O)c3ccccc3S2(=O)=O)c1C | 656 nM
Cc1ccc(-c2csc(NC(=O)C3CCN(S(=O)(=O)c4cccs4)CC3)n2)cc1 | > 80000 nM (inactive)
O=C(O)CSCC(=O)Nc1ccc(C2CCCCC2)cc1 | 776 nM
CCCCCCCCCCCCn1ccc(=N)cc1 | 9190 nM
CCc1cc2c(Sc3nc4ccccc4s3)ncnc2s1 | < 160 nM
COc1ccc(C(=O)Nc2nc3ccccc3s2)c(OC)c1 | 275 nM
CCCCCCCCCCOC(=O)Cn1c(COc2ccccc2OC)[n+](C)c2ccccc21 | > 80000 nM (inactive)
COC(=O)Cc1ccc(NC(=O)c2ccc(C(C)(C)C)cc2)cc1 | < 160 nM
O=C(c1ccc(Br)cc1)c1cc([N+](=O)[O-])ccc1N1CCCCC1 | > 80000 nM (inactive)
Cc1nn(-c2ccccc2)c(C)c1/C=N/NC(=O)c1cc(-c2cccs2)[nH]n1 | 21500 nM (inactive)
CCOc1ccc(S(=O)(=O)NCc2ccncc2)cc1 | > 80000 nM (inactive)
O=C(NCCc1ccccc1F)c1ccc2c(c1)OCCO2 | 675 nM
O=C(NCCNCCO)C1(C(F)(F)F)C/C(=C\CCO)CCCO1 (stereo unspecified) | > 80000 nM (inactive)
CN=c1scc(-c2ccccc2F)n1/N=C/c1ccc[nH]1 | 702 nM
CC(Nc1ncnc2sccc12)c1ccccc1 (stereo unspecified) | 64400 nM (inactive)
O=C(Nc1cccc(C(=O)O)c1)Nc1ccc2c(c1)OCO2 | 1140 nM
c1ccc2sc(Sc3ncnc4sccc34)nc2c1 | 197 nM
Cc1cc(NNC(=O)Nc2cccc(Cl)c2)nc2c1c(C)nn2C | > 80000 nM (inactive)
COc1ccc(/C=C2\SC(=O)N(CCCC(=O)Nc3cc(Cl)ccc3C(=O)O)C2=O)cc1 | 331 nM
COc1ccc(C[C@H]2NC[C@H](O)[C@H]2OC(C)=O)cc1 | < 160 nM
CCOc1ccc(-c2cc(CCCC(=O)Nc3cccc(OC)c3)no2)cc1 | 11300 nM
CCCCCNC(=O)c1ccc2c(=O)n(CC3CCCO3)c(=O)[nH]c2c1 (stereo unspecified) | > 80000 nM (inactive)
N#CC(c1cccc(Cl)c1)c1ccc2c(C(F)(F)F)cc(C(F)(F)F)nc2n1 (stereo unspecified) | > 80000 nM (inactive)
C=C1C(=O)O[C@@H]2C[C@@H](C)[C@@H]3C=CC(=O)[C@@]3(C)[C@@H](O)[C@H]12 | > 80000 nM (inactive)
O=C(COC(=O)c1ccc[nH]c1=O)Nc1ccc(N2CCCCC2)cc1 | 436 nM
COC(=O)CCn1nnc(-c2ccc(C(C)C)cc2)n1 | < 160 nM

SMILES | IC50
COc1ccc(-c2cc3nc(C)n(N)c(=O)c3s2)cc1 | 673 nM
COc1ccc(NS(=O)(=O)c2cccc(NC(=O)c3ccc(Cl)nc3)c2)cc1 | 70300 nM (inactive)
COc1cc(/C=N/NC(=S)Nc2cccc(C(=O)O)c2)ccc1O | 15300 nM
CCc1ccc(-c2nc(CS(=O)CC(=O)NCc3ccco3)c(C)o2)cc1 (stereo unspecified) | > 80000 nM (inactive)
CCN1/C(=C\c2ccc3ccccc3[n+]2CC)Sc2cc(C)ccc21 | > 80000 nM (inactive)
CC(=O)OC[C@]12CCC(C)=C[C@H]1O[C@@H]1[C@H](O)[C@@H](OC(C)=O)[C@@]2(C)[C@]12CO2 | < 160 nM
Cc1cc(Cl)c(S(=O)(=O)N2CCCCCC2)cc1OCC(=O)NC1CCCCC1 | > 80000 nM (inactive)
Cc1cc(Cl)c(S(=O)(=O)N2CCN(c3ccc(F)cc3)CC2)cc1OCC(=O)NC1CCCCC1 | > 80000 nM (inactive)
CCOc1ccc(NC(=O)Nc2cccc(C(=O)O)c2)cc1 | 504 nM
Cc1sc2ncnc(N3CCN(CCOc4ccc(Cl)cc4)CC3)c2c1C | > 80000 nM (inactive)
COc1cc([N+](=O)[O-])cc(/C=N/NC(=O)c2ccc(NC(=O)c3ccc(C)cc3)cc2)c1O | 1020 nM
Cc1ccc(NC(=O)COc2ccc(N(C)C(=O)C(C)(C)C)cc2)cc1S(=O)(=O)N1CCCCC1 | > 80000 nM (inactive)
CCCCC[n+]1cccc2c3ccccc3ccc21 | > 80000 nM (inactive)
COc1ccc(CNc2ncc(-c3ccc(F)cc3)n2C)c2ccccc12 | 1570 nM
Cc1cc(CSc2ccccc2)ccc1NC(=O)c1ccc(CN2CCOCC2)cc1 | > 80000 nM (inactive)
N#Cc1c(NC(=O)CSc2ncn[nH]2)sc2c1CCCCC2 | 283 nM
Cc1ccc(C(=O)CN2C(=O)c3ccccc3S2(=O)=O)cc1 | 1330 nM
COc1cccc2c1C(=O)c1c(O)c3c(c(O)c1C2=O)C[C@@](O)(C(=O)CO)C[C@@H]3O[C@H]1C[C@H](N)[C@H](O)[C@H](C)O1 | > 80000 nM (inactive)
C=C1C(O)[C@@H]2O[C@]3(CC[C@H](/C=C/C(C)[C@@H]4CC(C)=CC5(O[C@H](C[C@@](C)(O)C(=O)O)CCC5O)O4)O3)CC[C@H]2O[C@@H]1C(O)CC(C)[C@H]1OC2(CCCCO2)CCC1C (stereo partly specified) | < 160 nM
N#Cc1c(NC(=O)CSc2ncn[nH]2)sc2c1CCCC2 | 300 nM
COc1ccc(CCNc2ncnc3sccc23)cc1OC | 77400 nM (inactive)
CCCCCc1ccc(OCCCC[n+]2cccc(C)c2)c(CCCCC)c1 | > 80000 nM (inactive)
Cn1nccc1C(=O)NC1CCCc2c1cnn2-c1ccc(F)cc1F (stereo unspecified) | > 80000 nM (inactive)
CC(C)Cc1cc(C(C)(C)C)ccc1OC(=S)N(C)C | > 80000 nM (inactive)
CCOC(=O)C1CCCN(S(=O)(=O)c2ccc(S(=O)(=O)N(CC)CC)cc2)C1 (stereo unspecified) | > 80000 nM (inactive)
